From patent US5789431A, “Naphthoquinone antitumor compound and method” (The University of North Carolina at Chapel Hill, priority 1996, dated 1998)

Assays:
HOP-92 = test: in vitro non-small cell lung cancer cell growth inhibition (NCI screen)
M19-MEL = test: in vitro melanoma cell growth inhibition (NCI screen)
SF-539 = test: in vitro CNS cancer cell growth inhibition (NCI screen)
SK-MEL-5 = test: in vitro melanoma cell growth inhibition (NCI screen)
NCI-H460 = test: in vitro non-small cell lung cancer cell growth inhibition (NCI screen)
LXFL 529 = test: as above
UACC-62 = test: in vitro melanoma cell growth inhibition (NCI screen)
NCI-H23 = test: in vitro non-small cell lung cancer cell growth inhibition (NCI screen)
LOX1MVI = test: in vitro melanoma cell growth inhibition (NCI screen)
K-562 = test: in vitro leukemia cell growth inhibition (NCI screen)
SR = test: as above
MOLT-4 = test: as above
HL-60(TB) = test: as above
COLO-205 = test: in vitro colon cancer cell growth inhibition (NCI screen)
HCT-15 = test: as above
T-47D = test: in vitro breast cancer cell growth inhibition (NCI screen)
NCI-H522 = test: in vitro non-small cell lung cancer cell growth inhibition (NCI screen)
HCT-116 = test: in vitro colon cancer cell growth inhibition (NCI screen)
SW 620 = test: as above
CCRF-CEM = test: in vitro leukemia cell growth inhibition (NCI screen)
M14 = test: in vitro melanoma cell growth inhibition (NCI screen)
MCF7/ADR-RES = test: in vitro breast cancer cell growth inhibition (NCI screen)
HT 29 = test: in vitro colon cancer cell growth inhibition (NCI screen)
MALME-3M = test: in vitro melanoma cell growth inhibition (NCI screen)
UACC-257 = test: as above
RXF-393 = test: in vitro renal cancer cell growth inhibition (NCI screen)
PC-3 = test: in vitro prostate cancer cell growth inhibition (NCI screen)
OVCAR-3 = test: in vitro ovarian cancer cell growth inhibition (NCI screen)
DLD-1 = test: in vitro colon cancer cell growth inhibition (NCI screen)
U 251 = test: in vitro CNS cancer cell growth inhibition (NCI screen)
SF-268 = test: as above
OVCAR-4 = test: in vitro ovarian cancer cell growth inhibition (NCI screen); conditions: OVACR-4
ACHN = test: in vitro renal cancer cell growth inhibition (NCI screen)
IGROV1 = test: in vitro ovarian cancer cell growth inhibition (NCI screen)
SK-MEL-2 = test: in vitro melanoma cell growth inhibition (NCI screen)
human tumor cell lines = assay type: cell-based; conditions: cancer cell line panel
RPMI-8226 = test: in vitro leukemia cell growth inhibition (NCI screen)

Structure (SMILES)	cytotoxicity log GI50 (HOP-92)	cytotoxicity log GI50 (M19-MEL)	cytotoxicity log GI50 (SK-MEL-5)	cytotoxicity log GI50 (NCI-H460)	cytotoxicity log GI50 (UACC-62)	cytotoxicity log GI50 (NCI-H23)	cytotoxicity log GI50 (LOX1MVI)	cytotoxicity log GI50 (K-562)	cytotoxicity log GI50 (HL-60(TB))	cytotoxicity log GI50 (HCT-15)	cytotoxicity log GI50 (NCI-H522)	cytotoxicity log GI50 (HCT-116)	cytotoxicity log GI50 (MALME-3M)	cytotoxicity log GI50 (OVCAR-3)	cytotoxicity log GI50 (DLD-1)	other results
CCC(CC)NC1=C(NC(C)=O)C(=O)c2ccccc2C1=O [Compound 34]	-6.47 M															
CCC(C)Cn1c(C)nc2c1C(=O)c1ccccc1C2=O (stereo not drawn) [Compound 13]	-4.69 M	-4.74 M	-4.82 M	-4.83 M	-5.00 M	-4.68 M	-4.71 M	-5.27 M	-5.30 M	-4.76 M						cytotoxicity log GI50 (SF-539): -4.75 M; cytotoxicity log GI50 (LXFL 529): -4.77 M; cytotoxicity log GI50 (SR): -5.55 M; cytotoxicity log GI50 (MOLT-4): -5.54 M; cytotoxicity log GI50 (COLO-205): -4.70 M
O=C(O)CCc1nc2c(n1-c1ccccc1)C(=O)c1ccccc1C2=O [Compound 60]	-7.65 M										-4.42 M	-4.30 M				cytotoxicity log GI50 (T-47D): -4.19 M
CCNC1=C(NC(=O)CC)C(=O)c2ccccc2C1=O [Compound 45]			-4.27 M							-4.19 M	-4.34 M	-4.44 M	-4.64 M	-4.49 M		cytotoxicity log GI50 (SW 620): -4.22 M; cytotoxicity log GI50 (CCRF-CEM): -4.25 M; cytotoxicity log GI50 (M14): -4.50 M; cytotoxicity log GI50 (MCF7/ADR-RES): -4.23 M; cytotoxicity log GI50 (HT 29): -4.46 M; cytotoxicity log GI50 (UACC-257): -4.52 M; cytotoxicity log GI50 (RXF-393): -4.32 M; cytotoxicity log GI50 (PC-3): -4.37 M; cytotoxicity log GI50 (COLO-205): -4.33 M
CCCC(C)n1c(C)nc2c1C(=O)c1ccccc1C2=O (stereo not drawn) [Compound 9]	-4.78 M	-4.90 M	-4.88 M	-5.34 M	-5.17 M	-4.81 M	-5.06 M	-5.07 M		-5.22 M		-5.26 M			-5.07 M	cytotoxicity log GI50 (SF-539): -4.89 M; cytotoxicity log GI50 (HT 29): -4.76 M; cytotoxicity log GI50 (U 251): -4.91 M; cytotoxicity log GI50 (LXFL 529): -4.90 M
Cc1nc2c(n1CCC(C)C)C(=O)c1ccccc1C2=O [Compound 11]		-4.84 M	-4.84 M	-5.22 M	-4.91 M		-4.83 M	-5.09 M	-5.22 M	-4.93 M		-5.17 M			-4.95 M	cytotoxicity log GI50 (CCRF-CEM): -4.87 M; cytotoxicity log GI50 (SF-539): -4.92 M; cytotoxicity log GI50 (U 251): -4.90 M; cytotoxicity log GI50 (LXFL 529): -4.88 M; cytotoxicity log GI50 (SF-268): -4.84 M; cytotoxicity log GI50 (SR): -5.33 M; cytotoxicity log GI50 (MOLT-4): -5.08 M; cytotoxicity log GI50 (COLO-205): -4.84 M
O=C1c2ccccc2C(=O)c2[nH]c(Cc3ccc(F)cc3)nc21 [Compound 4c]										-5.19 M			-4.84 M	-5.27 M	-5.40 M	cytotoxicity log GI50 (OVCAR-4): -4.83 M; cytotoxicity log GI50 (SW 620): -4.84 M; cytotoxicity log GI50 (ACHN): -4.85 M; cytotoxicity log GI50 (M14): -4.82 M; cytotoxicity log GI50 (IGROV1): -4.90 M; cytotoxicity log GI50 (RXF-393): -5.16 M; cytotoxicity log GI50 (SK-MEL-2): -4.86 M
COc1ccc(-n2c(CCC(=O)O)nc3c2C(=O)c2ccccc2C3=O)cc1 [Compound 62]							-4.55 M				-4.46 M					cytotoxicity log GI50 (T-47D): -4.48 M
CCC(C)CNC1=C(NC(C)=O)C(=O)c2ccccc2C1=O (stereo not drawn) [Compound 37]		-4.68 M	-4.50 M			-4.17 M							-4.45 M	-4.25 M		
Cc1nc2c(n1CCO)C(=O)c1ccccc1C2=O [Compound 16]		-5.59 M	-4.95 M		-4.78 M	-4.82 M	-4.63 M	-4.59 M	-4.70 M		-4.84 M	-4.72 M	-4.93 M	-4.61 M		cytotoxicity log GI50 (OVCAR-4): -4.58 M; cytotoxicity log GI50 (ACHN): -4.60 M; cytotoxicity log GI50 (M14): -4.67 M; cytotoxicity log GI50 (IGROV1): -4.69 M; cytotoxicity against tumor cells (in words) (human tumor cell lines): comparable to those of compounds 6-14; cytotoxicity log GI50 (UACC-257): -4.78 M; cytotoxicity log GI50 (SR): -4.58 M; cytotoxicity log GI50 (SK-MEL-2): -4.74 M; cytotoxicity log GI50 (COLO-205): -4.72 M
CCC(C)n1c(C)nc2c1C(=O)c1ccccc1C2=O (stereo not drawn) [Compound 6]	-4.66 M	-4.74 M	-4.57 M	-4.71 M	-4.55 M	-4.48 M	-4.64 M	-4.47 M	-4.84 M	-4.57 M		-4.50 M	-4.49 M	-4.49 M	-4.57 M	cytotoxicity log GI50 (CCRF-CEM): -4.43 M; cytotoxicity log GI50 (SF-539): -4.49 M; cytotoxicity log GI50 (UACC-257): -4.55 M; cytotoxicity log GI50 (LXFL 529): -4.48 M; cytotoxicity log GI50 (RXF-393): -4.57 M; cytotoxicity log GI50 (SF-268): -4.51 M; cytotoxicity log GI50 (MOLT-4): -4.55 M
CC(=O)NC1=C(NCCC(C)C)C(=O)c2ccccc2C1=O [Compound 35]																cytotoxicity log GI50 (ACHN): -7.52 M
CCC(C)NC1=C(NC(C)=O)C(=O)c2ccccc2C1=O (stereo not drawn) [Compound 30]							-4.81 M	-4.36 M	-4.76 M	-4.34 M				-4.39 M	-4.56 M	cytotoxicity log GI50 (SW 620): -4.65 M; cytotoxicity log GI50 (CCRF-CEM): -4.66 M; cytotoxicity log GI50 (RPMI-8226): -4.87 M
Cc1nc2c(n1CC(C)(C)C)C(=O)c1ccccc1C2=O [Compound 14]	-4.78 M		-4.37 M	-4.23 M			-4.25 M	-4.25 M	-4.44 M					-4.18 M		
CCCC(C)NC1=C(NC(C)=O)C(=O)c2ccccc2C1=O (stereo not drawn) [Compound 33]	-4.32 M	-4.20 M	-4.13 M								-4.19 M		-4.44 M			
